From PubChem BioAssay (NCI)
Values joined by “and” are separate entries in the source; they are usually repeats but may differ in a detail not shown here. Identical values can stand only once.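 Dose response: 5 concentrations. Exposure: 48 h. Format: 96-well plates. Endpoint: linear interpolation; highest concentration if not reached. Abbreviation: GI50, concentration required for 50% inhibition of growth. TGI is the concentration that stops growth completely.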

Experiments:
Experiment in all cases: NCI tumour cell line growth inhibition, 48 h
U251 CNS = system: U251 CNS
MALME-3M melanoma = system: MALME-3M melanoma
HCT-15 colon = system: HCT-15 colon
OVCAR-5 ovarian = system: OVCAR-5 ovarian
ACHN renal = system: ACHN renal
NCI/ADR-RES ovarian = system: NCI/ADR-RES ovarian
786-0 renal = system: 786-0 renal
LOX IMVI melanoma = system: LOX IMVI melanoma
NCI-H226 lung = system: NCI-H226 lung
SK-MEL-5 melanoma = system: SK-MEL-5 melanoma

SMILES	GI50 (U251 CNS)	TGI (U251 CNS)	GI50 (MALME-3M melanoma)	TGI (MALME-3M melanoma)	GI50 (HCT-15 colon)	TGI (HCT-15 colon)	GI50 (OVCAR-5 ovarian)	TGI (OVCAR-5 ovarian)	GI50 (ACHN renal)	TGI (ACHN renal)	GI50 (NCI/ADR-RES ovarian)	TGI (NCI/ADR-RES ovarian)	GI50 (786-0 renal)	TGI (786-0 renal)	GI50 (LOX IMVI melanoma)	TGI (LOX IMVI melanoma)	GI50 (NCI-H226 lung)	TGI (NCI-H226 lung)	GI50 (SK-MEL-5 melanoma)	TGI (SK-MEL-5 melanoma)
O=C(CN1CCN(CCN2C(=O)c3cccc4cccc(c34)C2=O)CC1)Nc1ccc2ncsc2c1	4.39 µM	17.2 µM	7.47 µM	24 µM	5.05 µM	20.1 µM	10.5 µM	> 100 µM	4.09 µM	16.5 µM	6.2 µM	53.8 µM	5.82 µM	20.8 µM	4.93 µM	20.4 µM	7.58 µM	> 100 µM	3.7 µM	16 µM
Cc1ccc(S(=O)(=O)OCC(=O)Nc2ccc(C(=O)O)c(O)c2)cc1	16.3 µM	34.5 µM	32.3 µM	115 µM	38.8 µM	155 µM	46.5 µM	105 µM	43.1 µM	159 µM	32.2 µM	162 µM	30.5 µM	96.7 µM	20.8 µM	61 µM	30.9 µM	139 µM	27 µM	82.6 µM
[N-]=[N+]=NCCCn1c2c(c3ccc([N+](=O)[O-])cc3c1=O)C(=O)c1cc(I)ccc1-2	2.23 µM	30.6 µM	12.5 µM	77 µM	18.5 µM	> 100 µM	41.2 µM	> 100 µM	2.25 µM	7.5 µM	4.17 µM	46.6 µM	3.17 µM	16 µM	3.75 µM	33 µM	14.3 µM	> 100 µM	3.77 µM	15.5 µM
C[C@]12CCCN1CC1=NNC(=O)c3cc(F)cc4[nH]c2c1c34	14.1 µM	> 100 µM	28.9 µM	70.5 µM	21.2 µM	> 100 µM	20.2 µM	> 100 µM	21.1 µM	> 100 µM	20 µM	71.8 µM	26.2 µM	> 100 µM	7.64 µM	60.3 µM	7.84 µM	67.7 µM	20.7 µM	53.4 µM
COc1ccc(/C(=C/c2ccc3ccccc3c2)c2nn[nH]n2)cc1OC	4.46 µM	> 100 µM	3.08 µM	> 100 µM	2.92 µM	> 100 µM	6.08 µM	> 100 µM	11.3 µM	> 100 µM	1.03 µM	> 100 µM	5.72 µM	> 100 µM	5.63 µM	> 100 µM	> 100 µM	> 100 µM	4.68 µM	23.8 µM
COC(=O)CC1C2(C)C3=C(C)C(c4ccoc4)CC3OC2C2OC(=O)C3(C)C=CC(=O)C1(C)C23 (stereo not drawn)		2.95 µM		2.48 µM		3.15 µM		5.44 µM		2.52 µM		14.1 µM		2.34 µM		2.3 µM		7.68 µM		3.03 µM
CS(=O)(=O)c1ccc2c(c1)C(=O)c1c-2n(CCCBr)c(=O)c2cc([N+](=O)[O-])ccc12	8.76 µM	> 100 µM	69.6 µM	> 100 µM	48.9 µM	> 100 µM	> 100 µM	> 100 µM	4.98 µM	> 100 µM	27.3 µM	> 100 µM	6.07 µM	> 100 µM	5.77 µM	> 100 µM	26.5 µM	> 100 µM	1.91 µM	15.8 µM
CC(C)n1nc(C#Cc2cccc(O)c2)c2c(N)ncnc21	2.83 µM and 2.95 µM	50 µM and 12.8 µM	0.248 µM and 0.234 µM	1.38 µM and 0.917 µM	1.35 µM and 0.906 µM	21.6 µM and 10.1 µM	1.79 µM and 1.62 µM	16.4 µM and 8 µM	1.05 µM and 0.461 µM	4.18 µM and 3.96 µM	2.38 µM and 1.87 µM	24.7 µM and 7.09 µM	4.7 µM and 3.37 µM	15.3 µM and 11.7 µM	0.685 µM and 0.316 µM	2.64 µM and 1.19 µM	3.81 µM and 1.37 µM	21.1 µM and 6.02 µM	1.72 µM and 0.887 µM	6.39 µM and 2.67 µM
COc1ccc(N=N/C(=N\NC(=O)c2cc(Br)ccc2O)c2ccc(N(CCC#N)CCC#N)cc2OC)cc1	> 150 µg/mL	> 150 µg/mL	68.2 µg/mL	> 150 µg/mL	42 µg/mL	> 150 µg/mL	108 µg/mL	> 150 µg/mL	85.7 µg/mL	> 150 µg/mL	42 µg/mL	> 150 µg/mL	64.6 µg/mL	> 150 µg/mL	53.2 µg/mL	> 150 µg/mL	24.2 µg/mL	88.1 µg/mL	56.1 µg/mL	> 150 µg/mL
Nc1nc(=S)c2ncn(C3OC(CO)C(O)C3O)c2[nH]1 (stereo not drawn)	6.5 µM	> 100 µM	1.2 µM	31.1 µM	0.92 µM	> 100 µM	0.827 µM	> 100 µM	0.944 µM	42.6 µM	0.4 µM		0.348 µM		0.301 µM	11.8 µM	3.5 µM	> 100 µM	2.41 µM	10.8 µM
O=C(/C=C/c1ccco1)Nc1ncc(Cc2cccc(C(F)(F)F)c2)s1	0.0532 µM	2.11 µM	0.125 µM	10.6 µM	0.0465 µM	> 34.3 µM	0.353 µM	11.8 µM	0.0647 µM	3.66 µM	0.0422 µM	1.66 µM	0.163 µM	17.8 µM	0.0572 µM	2.92 µM	0.336 µM		0.0512 µM	1.81 µM
Cc1cncc(-c2nc(NCCc3c[nH]c4ccccc34)c3ncn(C(C)C)c3n2)c1	4.96 µM	39.6 µM	2.08 µM	5.71 µM	1.67 µM	3.82 µM	3.45 µM	18.4 µM	3.76 µM	13.5 µM	3.69 µM	24 µM	2.01 µM	6.01 µM	4.61 µM	15.5 µM	4.69 µM	20.5 µM	4.23 µM	15.5 µM
O=C(COc1cccc(/C=C2\COc3ccccc3C2=O)c1)c1ccccc1	1.65 µM	3.03 µM	13.1 µM	28.2 µM	1.85 µM	4.45 µM	2.8 µM	7.23 µM	2.14 µM	5.18 µM	3.26 µM	11.8 µM	5.85 µM	19 µM	1.66 µM	3.12 µM	12.3 µM	25.4 µM	2.83 µM	7.63 µM
COC(=O)[C@H](Cc1ccccc1)NNC(=O)c1csc([C@@H](C[C@H](C(C)C)N(C)C(=O)[C@@H](NC(=O)[C@H]2CCCCN2C)C2CC2)OC(C)=O)n1		25 µM and > 100 µM		> 100 µM		25 µM and > 100 µM		25 µM and > 100 µM		25 µM and > 100 µM	15.7 µM and 11 µM	25 µM and > 100 µM		25 µM and > 100 µM		25 µM and > 100 µM		25 µM and > 100 µM		0.51 µM and 2.26 µM
NC(CP(=O)(O)O)C(=O)O (stereo not drawn)		> 100 µM		> 100 µM		> 100 µM		> 100 µM		> 100 µM		> 100 µM		> 100 µM		> 100 µM		> 100 µM		> 100 µM
Cc1cc2c(C(=O)NCC#N)cccc2n1-c1nc2c(c(NCc3ccccc3)n1)CCCC2	0.227 µM	0.521 µM	0.201 µM	0.618 µM	0.192 µM	0.404 µM	0.395 µM	1.94 µM	0.28 µM	1.24 µM	0.328 µM	3.03 µM	0.382 µM	1.39 µM	0.18 µM	0.358 µM	0.293 µM	0.748 µM	0.118 µM	0.245 µM
